In patent US4215215A, “9-Phenyl-nonate traene compounds” (Hoffmann-La Roche Inc., priority 1979, dated 1980):

What was measured:
papillomas = assay: Papilloma test (tumors induced with dimethylbenzanthracene and croton oil); assay type: in vivo; conditions: intraperitoneal, within 2 weeks
Excerpt: The compounds of formula I are effective for utilizing tumors such as papillomas. In the papilloma test, tumors induced with dimethylbenzanthracene and croton oil regress. The diameters of the papillomae decline within 2 weeks on intraperitoneal administration.

in vivo = conditions: mouse, ip, mice; for LD50 at 24 h: After 1 day; for LD50 at 24 h / LD50 at 240 h / LD50 at 480 h: intraperitoneal, in rape-oil; for LD50 at 240 h: After 10 days; for LD50 at 480 h: After 20 days; for LD50: intraperitoneal administration in rape-oil, no time stated, read-out: acute toxicity [LD50]

Row | SMILES | decline of the diameters of the papillomae (papillomas; 25 mg/kg/week) [%] | decline of the diameters of the papillomae (papillomas; 50 mg/kg/week) [%] | LD50 at 24 h (in vivo) [mg/kg] | LD50 at 240 h (in vivo) [mg/kg] | LD50 at 480 h (in vivo) [mg/kg] | LD50 (in vivo) [mg/kg] | decline of the diameters of the papillomae (papillomas; 100 mg/kg/week) [%]
1 | CCOC(=O)C=C(C)C=CC=C(C)C=Cc1c(C)cc(OC)c(C)c1C [Substance B, 9-(4-methoxy-2,3,6-trimethyl-phenyl)-3,7-dimethyl-nona-2,4,6,8-tetraen-1-oic acid ethyl ester] | 45 | 63 | > 4000 | 1900 | 1000 | 1000 | –
2 | COc1cc(C)c(C=CC(C)=CC=CC(C)=CC(=O)O)c(C)c1C [Substance A, 9-(4-methoxy-2,3,6-trimethyl-phenyl)-3,7-dimethyl-nona-2,4,6,8-tetraen-1-oic acid] | – | 38 | > 4000 | 700 | 700 | 700 | 69
